This note sets out measurements from ChEMBL document CHEMBL5029192, “Novel Macrocyclic LRRK2 Inhibitors for Treating Parkinson's Disease” (ACS Med Chem Lett, 2022).

The experiment concerns the target Leucine-rich repeat serine/threonine-protein kinase 2 (Homo sapiens, UniProt Q5S007). As to the kind of experiment: Inhibition of recombinant human LRRK2 using LRRKtide peptide and ATP as substrates incubated for 1 hrs by ADP-glo luminescent assay.

By IC50 is commonly meant the point on the concentration scale where inhibition reaches its midpoint.

Chain of Leucine-rich repeat serine/threonine-protein kinase 2 (Q5S007 whole entry): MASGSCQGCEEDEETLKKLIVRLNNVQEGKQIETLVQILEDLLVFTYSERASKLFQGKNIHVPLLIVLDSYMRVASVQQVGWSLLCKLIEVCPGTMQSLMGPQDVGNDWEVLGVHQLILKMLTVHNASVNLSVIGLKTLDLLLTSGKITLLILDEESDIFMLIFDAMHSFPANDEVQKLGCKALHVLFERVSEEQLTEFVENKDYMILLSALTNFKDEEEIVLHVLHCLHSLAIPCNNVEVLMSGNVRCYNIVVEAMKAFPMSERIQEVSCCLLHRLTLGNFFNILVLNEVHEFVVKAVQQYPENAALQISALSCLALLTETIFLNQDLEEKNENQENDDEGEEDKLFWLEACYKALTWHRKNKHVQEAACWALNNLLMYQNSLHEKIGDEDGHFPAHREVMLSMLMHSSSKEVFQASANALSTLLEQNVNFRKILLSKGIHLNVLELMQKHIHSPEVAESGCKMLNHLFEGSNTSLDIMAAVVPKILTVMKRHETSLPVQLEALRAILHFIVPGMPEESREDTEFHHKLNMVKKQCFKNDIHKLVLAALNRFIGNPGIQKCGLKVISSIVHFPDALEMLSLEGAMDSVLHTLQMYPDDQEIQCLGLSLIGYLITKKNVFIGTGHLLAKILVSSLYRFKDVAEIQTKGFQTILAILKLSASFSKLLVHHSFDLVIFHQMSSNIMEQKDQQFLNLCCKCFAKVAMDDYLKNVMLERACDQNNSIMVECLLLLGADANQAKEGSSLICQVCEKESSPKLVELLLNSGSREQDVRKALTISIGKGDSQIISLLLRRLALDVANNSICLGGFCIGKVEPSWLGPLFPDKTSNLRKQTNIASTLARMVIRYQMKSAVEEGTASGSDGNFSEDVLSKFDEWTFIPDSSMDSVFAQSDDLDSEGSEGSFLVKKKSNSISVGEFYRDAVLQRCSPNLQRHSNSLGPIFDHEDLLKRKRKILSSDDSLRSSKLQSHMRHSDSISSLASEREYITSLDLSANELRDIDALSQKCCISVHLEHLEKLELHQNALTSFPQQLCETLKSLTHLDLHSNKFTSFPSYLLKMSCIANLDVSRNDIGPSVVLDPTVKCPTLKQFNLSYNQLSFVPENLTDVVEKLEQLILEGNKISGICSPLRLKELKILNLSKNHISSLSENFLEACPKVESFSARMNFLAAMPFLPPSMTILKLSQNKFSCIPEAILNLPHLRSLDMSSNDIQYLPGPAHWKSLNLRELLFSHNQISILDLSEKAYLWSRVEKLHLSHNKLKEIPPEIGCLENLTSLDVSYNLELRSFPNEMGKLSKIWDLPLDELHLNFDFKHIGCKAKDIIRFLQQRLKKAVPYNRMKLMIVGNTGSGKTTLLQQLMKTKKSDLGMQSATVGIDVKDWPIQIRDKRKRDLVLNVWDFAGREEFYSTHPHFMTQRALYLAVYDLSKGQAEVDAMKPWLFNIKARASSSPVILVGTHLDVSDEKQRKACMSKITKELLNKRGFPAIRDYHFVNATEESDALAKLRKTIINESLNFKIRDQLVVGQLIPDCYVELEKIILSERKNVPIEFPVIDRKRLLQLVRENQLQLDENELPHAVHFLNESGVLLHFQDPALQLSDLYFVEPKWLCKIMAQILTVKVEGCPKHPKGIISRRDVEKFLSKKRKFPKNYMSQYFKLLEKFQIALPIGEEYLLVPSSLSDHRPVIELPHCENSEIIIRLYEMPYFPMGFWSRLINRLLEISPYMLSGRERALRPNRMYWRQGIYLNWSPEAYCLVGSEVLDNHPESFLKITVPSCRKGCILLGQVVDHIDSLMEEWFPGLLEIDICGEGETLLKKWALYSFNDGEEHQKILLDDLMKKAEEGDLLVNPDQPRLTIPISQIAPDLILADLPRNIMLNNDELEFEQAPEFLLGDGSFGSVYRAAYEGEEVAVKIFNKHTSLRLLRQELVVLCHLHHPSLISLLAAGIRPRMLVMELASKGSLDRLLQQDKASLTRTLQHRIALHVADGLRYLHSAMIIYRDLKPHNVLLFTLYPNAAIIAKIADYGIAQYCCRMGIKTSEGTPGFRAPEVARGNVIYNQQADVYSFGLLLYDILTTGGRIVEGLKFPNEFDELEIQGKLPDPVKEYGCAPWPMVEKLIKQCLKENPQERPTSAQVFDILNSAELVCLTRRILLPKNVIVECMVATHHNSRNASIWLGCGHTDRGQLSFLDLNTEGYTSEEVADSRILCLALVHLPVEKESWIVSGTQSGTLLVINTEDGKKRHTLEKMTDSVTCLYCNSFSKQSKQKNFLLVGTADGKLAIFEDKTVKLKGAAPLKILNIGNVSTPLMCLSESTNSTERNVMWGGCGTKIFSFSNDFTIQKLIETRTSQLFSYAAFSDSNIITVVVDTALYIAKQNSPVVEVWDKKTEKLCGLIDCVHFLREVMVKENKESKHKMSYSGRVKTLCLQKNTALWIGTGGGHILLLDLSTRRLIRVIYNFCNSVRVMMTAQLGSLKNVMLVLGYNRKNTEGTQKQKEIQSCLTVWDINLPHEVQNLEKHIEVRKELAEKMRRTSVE

On to `O=C1NCCCOc2ccc3[nH]nc(c3c2)-c2cc(cc(N3CCN(C4COC4)CC3)c2)CO1`, for which the half-inhibitory concentration (IC50) is below 10 nM.

In the case of `O=C1NCCCOc2ccc3[nH]nc(c3c2)-c2cc(cc(N3CCC4(COC4)C3)c2)CO1`, the half-inhibitory concentration (IC50) was below 10 nM.

Consider `O=C1NCCCOc2ccc3[nH]nc(c3c2)-c2ccc(C3CC3)c(c2)CO1`, for which the concentration for half-maximal inhibition (IC50) was below 10 nM.

For the compound `O=C1NCCCOc2ccc3[nH]nc(c3c2)-c2cc(cc(N3CCC(N4CCCC4)CC3)c2)CO1`, the half-maximal inhibitory concentration (IC50) is below 10 nM.

As for `O=C1NCCCOc2ccc3[nH]nc(c3c2)-c2cc(cc(N3CCC(N4CCOCC4)CC3)c2)CO1`, the IC50 is below 10 nM.

For `O=C1NCCCOc2ccc3[nH]nc(c3c2)-c2csc(n2)CCO1`, the half-inhibitory concentration (IC50) was below 10 nM.
